These results are taken from BindingDB's records for PubMed 27021004 (University of Warwick, 2016).

In this test the target is T1, Phospho-N-acetylmuramoyl-pentapeptide-transferase (Bacillus subtilis (strain 168), UniProt Q03521).
T1 sequence (Q03521 whole entry): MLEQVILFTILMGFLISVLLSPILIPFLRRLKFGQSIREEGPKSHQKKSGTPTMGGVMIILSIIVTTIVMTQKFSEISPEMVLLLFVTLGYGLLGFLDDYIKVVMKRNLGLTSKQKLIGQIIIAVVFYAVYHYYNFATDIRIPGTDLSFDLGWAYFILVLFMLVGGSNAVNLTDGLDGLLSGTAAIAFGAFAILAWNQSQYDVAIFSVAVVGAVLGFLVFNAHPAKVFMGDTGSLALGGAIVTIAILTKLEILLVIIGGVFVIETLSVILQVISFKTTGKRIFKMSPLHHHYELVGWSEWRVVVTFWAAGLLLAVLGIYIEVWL
The experiment in a line: Inhibition of Bacillus subtilis MraY.

Molecules are shown by their SMILES.

For the molecule `NC[C@H]1O[C@@H](O[C@@H](Cn2cc(CCCCCO)nn2)[C@H]2O[C@@H](n3ccc(=O)[nH]c3=O)[C@H](O)[C@@H]2O)[C@H](O)[C@@H]1O`, the IC50 stood at 400 nM.

The term IC50 denotes the concentration needed to halve the response being measured. Lower therefore signals inhibition by little substance.
